Data from US8110555B2, “7-hydroxy chromones as potent antioxidants” (Unigen, Inc., priority 2002, dated 2012).

Assays:
[1] = tested on: tyrosinase; conditions: cited from earlier work; for type of tyrosinase inhibition (Lineweaver Burk diagram): Yagi et al. (1987)
[2] = tested on: oxygen radical damage of β-phycoerythrin (β-PE) indicator protein; assay: Fast and slow Oxygen Radical Absorption Capacity (ORAC); assay type: biochemical; conditions: for slow antioxidant activity, comparison in words: slow ORAC (50% of β-phycoerythrin survives)
Source text: Ascorbic acid, free phenolic compounds and thiol compounds are fast acting antioxidants. The slow antioxidant activity is a measure of the net protection area under the quenching curve of β-phycoerythrin in the presence of an antioxidant, which inhibits free radical propagation to the extent that 50% of β-phycoerythrin survives. Flavonoids, carotenoids and polyphenols are slow acting antioxidants. Aloeresin A (purity 76.0%), Aloesin (95.2%), green tea extract and grape seed extract, respectively were dissolved in deionized water (5% (W/V) solution) and tested directly using the experiment procedures described by Cao et al. (1994) Free Radic. Biol. Med. 16:135-137 and Prior and Cao (1999) Proc. Soc. Exp. Biol. Med. 220:255-261.

[3] = tested on: spontaneous lipid peroxidation reaction; assay: Lipid Peroxidation Inhibition Capacity (LPIC) assay, MDA by thiobarbituric acid reaction; assay type: biochemical; conditions: for inhibition of lipid peroxidation: concentration 5 mg/mL in phosphate-saline buffer
Source text: The Lipid Peroxidation Inhibition Capacity (LPIC) assay is a method for measuring the ability of a sample to inhibit the initiation and propagation of a spontaneous lipid peroxidation reaction. Lipid peroxidation represents the major mechanism of lipid destruction occurring in an organism. This reaction is also an important source of reactive oxygen species. In part, lipid peroxidation is controlled in vivo by:
Lipid Peroxidation Inhibition Capacity (LPIC) is a measure of the anti-oxidative ability of a sample to inhibit the initiation and propagation of a spontaneous lipid peroxidation reaction. Malonyldialdehyde (MDA) is one of the major by-products of lipid peroxidation and is commonly used as a means of measuring the extent of lipid peroxidation. MDA concentrations were measured using the thiobarbituric acid reaction. Aloeresin A (purity 76.0%), vitamin C and cc-tocopherol were dissolved in a phosphate-saline buffer at four different concentrations (5 mg/mL, 10 mg/mL, 25 mg/mL and 50 mg/mL) and then tested directly using the experiment procedures described by Stocks et al. (1974) Clinical Sci. Mol. 47:215-222 and Yu and Lee, U.S. Pat. No. 5,939,395.

[4] = tested on: oxygen radical damage of β-phycoerythrin (β-PE) indicator protein; assay: Oxygen Radical Absorption Capacity (ORAC) assay, whole ORAC; assay type: biochemical; conditions: FIG. 4
Source text: The Oxygen Radical Absorption Capacity (ORAC) assay is a method for measuring total serum antioxidant activity. (Cao et al. (1993) Free Rad. Biol. Med. 14:303-311). It can be used to quantitatively measure the total antioxidant capacity, as well as, qualitatively measure the levels of fast versus slow acting antioxidants in a blood serum sample. The assay utilizes the free radical sensitive fluorescent indicator protein β-phycoerythrin (β-PE) to monitor the effectiveness of various serum antioxidants in protecting β-PE from becoming damaged by free radicals. Assay results are quantitated by allowing the reaction to reach completion and then integrating the area under the kinetic curve relative to a blank reaction containing no antioxidant. The area under the curve is proportional to the concentration of all the antioxidants present in the sample. (DeLang and Glazer (1989) Analyt. Biochem. 177:300-306).
The chromones, Aloesin and Aloeresin A, were tested for Oxygen Radical Absorption Capacity (ORAC) relative to green tea extract which contains more than 50% total catechins and more than 25% epigallocatechingallate (EGCG) and grape seed extract which contains more than 95% total phenols. The ORAC assay measures the time-dependent decrease in the fluorescence of β-phycoerythrin (β-PE) indicator protein, resulting from oxygen radical damage. This assay provides a quantitative measure of the total antioxidant capacity to protect the free radical sensitive β-phycoerythrin. Each reaction was calibrated using the known standard Trolox, a water soluble vitamin E analogue. The ORAC value refers to the net protection area under the quenching curve of β-phycoerythrin in the presence of an antioxidant. The results of the assay are reported on the basis of 1 ORAC unit equals 1 μM of Trolox. Aloeresin A (purity 76.0%), aloesin (95.2%), green tea extract and grape seed extract were dissolved in deionized water (5% solution W/V) and tested directly using the experimental procedures described in Cao et al. (1994) Free Radic. Biol. Med. 16:135-137 and Prior and Cao (1999) Proc. Soc. […]

[5] = tested on: oxygen radical damage of β-phycoerythrin (β-PE) indicator protein; assay: ORAC of a meta-berry fruit drink product with added aloeresin A; assay type: biochemical; conditions: aloeresin A at a concentration of 5%; FIG. 7
Procedure: A fruit drink product obtained from Oasis Wellness Network was determined, using the methods described in Example 3, to have an ORAC value of 3,129/oz. Aloeresin A, containing 76.0% aloeresin A was added to 40 mL of the drink (lot #0612, exp. […] These samples were then tested for whole ORAC value relative to the product in the absence of aloeresin A. using the experiment procedures illustrated described by Cao et al. (1994) Free Radic. Biol. Med. 16:135-137 and Prior and Cao (1999) Proc. Soc. Exp. Biol. Med. 220:255-261).

For `COc1cc(/C=C/C(=O)O[C@@H]2[C@@H](O)[C@H](O)[C@@H](CO)O[C@H]2c2c(O)cc(C)c3c(=O)cc(CC(C)=O)oc23)ccc1O` [2″-feruloylaloesin, 2″-O-feruloylaloesin, reference compound], the “type of tyrosinase inhibition (Lineweaver Burk diagram)” value [1] is listed as “non-competitive inhibitor”.

For `CC(=O)Cc1cc(=O)c2c(C)cc(O)c([C@@H]3O[C@H](CO)[C@@H](O)[C@H](O)[C@H]3OC(=O)/C=C/c3ccc(O)cc3)c2o1` [aloeresin A], the “fast antioxidant potency relative to the other three compositions” value ([2]; fast ORAC (95% of β-phycoerythrin survives), 5% (W/V) solution, FIG. 5) was “four times more potent as a fast antioxidant”, the “slow antioxidant activity, comparison in words” value ([2]; 5% (W/V) solution, FIG. 5) was “superior antioxidant relative to grape seed and green tea extracts” and the “inhibition of lipid peroxidation” value [3] was 30.7%. The “lipid peroxidation inhibition capacity (LPIC), comparison in words” value ([3]; concentrations of 10 mg/mL to 50 mg/mL, vs α-tocopherol and vitamin C, FIG. 6) was “stronger antioxidant than either α-tocopherol or vitamin C”, the “whole ORAC value higher than grape seed extract” value ([4]; 5% (W/V) solution, difference to grape seed extract) was 299 and the “whole ORAC value higher than green tea extract” value ([4]; 5% (W/V) solution, difference to green tea extract) was 33. The “increase of ORAC value of a multiple berry fruit drink” value [5] was 31.3%.

In the case of `CC(=O)Cc1cc(=O)c2c(C)cc(O)c([C@@H]3O[C@H](CO)[C@@H](O)[C@H](O)[C@H]3O)c2o1` [aloesin], the “more active than grape seed extract at 50% ORAC conditions” value ([2]; 50% ORAC conditions, relative to grape seed extract) is reported as “more than six times more active”, the “more active than green tea extract at 50% ORAC conditions” value ([2]; 50% ORAC conditions, relative to green tea extract) is reported as “over 70%” and the “slow antioxidant activity, comparison in words” value ([2]; 5% (W/V) solution, FIG. 5) is reported as “more potent as a slow acting antioxidant”. For the same compound, the “whole ORAC value, comparison in words” value ([4]; 5% (W/V) solution in deionized water, vs aloeresin A, green tea and grape seed extracts) was “much higher whole ORAC value than aloeresin A and the standardized green tea and grape seed extracts”, the “type of tyrosinase inhibition (Lineweaver Burk diagram)” value [1] was “competitive inhibitor” and the IC50 ([1]; substrate L-DOPA, read-out: concentration for 50% inhibition of tyrosinase activity) was 200 µM.

In the case of `Cc1c(C)c2c(c(C)c1O)CC[C@@](C)(CCC[C@H](C)CCC[C@H](C)CCCC(C)C)O2` [α-tocopherol, reference compound], the “inhibition of lipid peroxidation” value [3] is reported as “below 10%”.
